Measured values taken from patent US9169252B2 (BRISTOL-MYERS SQUIBB COMPANY, priority 2014, dated 2015).
Read-outs that look alike come from different tables or passages of the source.

How the values were obtained:
IRAK4 = IRAK4 (Homo sapiens (Human), UniProt Q9NWZ3); experiment: IRAK4 Inhibition Assay; format: biochemical; settings: ATP 500 μM, read-out: IRAK4 IC50
Summary of the method: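 IRAK4 combined with fluorescent substrate and compounds, reacted 60 min at room temperature, stopped with 35 mM EDTA. Substrate and phosphorylated product separated electrophoretically on a Caliper LabChip 3000 mobility-shift reader.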

[1] = test system: TLR2 induced IL-6 in peripheral blood mononuclear cells (PBMCs); experiment: PBMC TLR2 Induced IL-6 Assay; format: cell-based, human; settings: for EC50: read-out: Cell EC50; for IC50: read-out: Cell IC50
Summary of the method: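 Lipoteichoic acid at 10 µg/ml served as TLR2 stimulus for 5 hours, following a 30-minute compound pretreatment at 37° C. Cells were Ficoll-isolated human PBMCs, 250000 cells/well, cultured in RPMI plus 10% heat-inactivated FCS.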

[2] = Homo sapiens, PBMC, human PBMCs, lipoteichoic acid stimulated, IL-6 by ELISA
[3] = Homo sapiens, PBMC, PBMC TLR2 Induced IL-6 Assay, lipoteichoic acid stimulation, IL-6 by ELISA

Chain of IRAK4 (Q9NWZ3 whole entry, species assumed): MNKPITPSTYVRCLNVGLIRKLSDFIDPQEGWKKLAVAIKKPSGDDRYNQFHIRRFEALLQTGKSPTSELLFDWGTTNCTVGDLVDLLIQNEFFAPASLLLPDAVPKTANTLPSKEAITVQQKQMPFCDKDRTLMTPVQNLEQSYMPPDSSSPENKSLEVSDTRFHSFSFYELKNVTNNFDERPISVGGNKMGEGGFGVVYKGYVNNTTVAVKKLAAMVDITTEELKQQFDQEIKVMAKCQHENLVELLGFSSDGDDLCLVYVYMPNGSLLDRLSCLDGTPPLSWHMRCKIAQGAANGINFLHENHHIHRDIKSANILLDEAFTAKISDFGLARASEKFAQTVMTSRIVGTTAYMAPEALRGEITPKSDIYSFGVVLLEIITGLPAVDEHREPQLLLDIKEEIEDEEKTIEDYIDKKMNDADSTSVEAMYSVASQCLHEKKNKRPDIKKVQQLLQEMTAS

Structure (SMILES)	IC50 (IRAK4; IRAK4 0.6 nM)	IC50 (IRAK4; IRAK4 Inhibition Assay)	EC50 [1, 3]	other results
CC(C)(O)[C@H](F)CNC(=O)c1cnc(-n2ncc3cc(F)cnc32)cc1NC1COC1 [Example 550]	10.3 nM	–	–	EC50 [1, 2]: 416 nM
CC(C)(O)[C@H](F)CNC(=O)c1cnc(-n2ncc3cc(F)cnc32)cc1NC1CCCOC1 (stereo partly shown) [Example 547]	16.6 nM	–	–	EC50 [1, 2]: 65 nM; IC50 [1, 2]: 591 nM
C[C@@H](CF)Nc1cc(-n2ncc3cc(C#N)cnc32)ncc1C(=O)NC[C@@H](F)C(C)(C)O [Example 121, 6-(5-cyano-1H-pyrazolo[3,4-b]pyridin-1-yl)-N—((R)-2-fluoro-3-hydroxy-3-methylbutyl)-4-(((S)-1-fluoropropan-2-yl)amino) nicotinamide]	–	5.2 nM	112 nM	–
CC(CF)Nc1cc(-n2ccc3cncnc32)ncc1C(=O)NC[C@@H](F)C(C)(C)O (stereo partly drawn) [Example 113, N—((R)-2-Fluoro-3-hydroxy-3-methylbutyl)-4-((1-fluoropropan-2-yl)amino)-6-(7H-pyrrolo[2,3-d]pyrimidin-7-yl)nicotinamide]	–	1.9 nM	222 nM	–
CCCCNC(=O)c1cnc(-n2ncc3cc(C#N)cnc32)cc1NC1COC1 [Example 561]	7.8 nM	–	–	IC50 [1, 2]: 321 nM
CCNC(=O)[C@H]1CC[C@H](NC(=O)c2cnc(-n3ccc4cc(C#N)cnc43)cc2NC(C)C)CC1 [Example 92, 6-(5-cyano-1H-pyrrolo[2,3-b]pyridin-1-yl)-N-((trans)-4-(ethylcarbamoyl)cyclohexyl)-4-(isopropylamino)nicotinamide]	–	1.7 nM	79 nM	–
CC(C)Nc1cc(-n2ncc3cc(C#N)cnc32)ncc1C(=O)NCCN1CCS(=O)(=O)CC1 [Example 211]	–	8.1 nM	87 nM	–
CC(C)Nc1cc(-n2ncc3cc(Cl)cnc32)ncc1C(=O)N[C@H]1CC[C@H](C(C)(C)O)CC1 [Example 150, 6-(5-chloro-1H-pyrazolo[3,4-b]pyridin-1-yl)-N-((trans)-4-(2-hydroxypropan-2-yl)cyclohexyl)-4-(isopropylamino)nicotinamide]	–	9 nM	593 nM	–
CC(C)(O)[C@H]1CC[C@H](NC(=O)c2cnc(-n3ncc4cc(Cl)cnc43)cc2NC2COC2)CC1 [Example 556]	6.2 nM	–	–	IC50 [1, 2]: 305 nM
CC(C)Nc1cc(-n2ncc3cc(C#N)c(N)nc32)ncc1C(=O)N[C@H](C)C1CC1 [Example 323]	–	17.3 nM	–	IC50 [1, 3]: 612 nM
CC(C)Nc1cc(-n2ncc3cc(C#N)cnc32)ncc1C(=O)NCCC1CCCCO1 (stereo not shown) [Example 220]	–	6.5 nM	168 nM	–
CC(=O)N[C@H]1CC[C@H](NC(=O)c2cnc(-n3ccc4cncnc43)cc2NC2CCOCC2)CC1 [Example 83, N-((trans)-4-acetamidocyclohexyl)-6-(7H-pyrrolo[2,3-d]pyrimidin-7-yl)-4-((tetrahydro-2H-pyran-4-yl)amino)nicotinamide]	–	4.9 nM	443 nM	IC50 [1, 3]: 777 nM
CCCNC(=O)c1cnc(-n2ncc3cc(C#N)cnc32)cc1Nc1cnn(CC(F)F)c1 [Example 389]	–	4 nM	–	IC50 [1, 3]: 241 nM
CNC(=O)c1cnc(-n2ncc3cc(C#N)c(N)nc32)cc1NC(C)C [Example 305]	–	9.2 nM	–	IC50 [1, 3]: 207 nM
CC(C)Nc1cc(-n2ncc3cc(C#N)cnc32)ncc1C(=O)NCCCN1CCOCC1 [Example 201]	–	16.3 nM	583 nM	–
CC(=O)N[C@H]1CC[C@H](NC(=O)c2cnc(-n3ncc4cc(C#N)cnc43)cc2NC(C)C)CC1 [Example 164, N-((trans)-4-acetamidocyclohexyl)-6-(5-cyano-1H-pyrazolo[3,4-b]pyridin-1-yl)-4-(isopropylamino) nicotinamide]	–	3.5 nM	299 nM	–
CC(C)(O)[C@H](F)CNC(=O)c1cnc(-n2ccc3cc(C#N)cnc32)cc1Nc1cccc(S(N)(=O)=O)c1 [Example 416]	1.9 nM	–	–	EC50 [1, 2]: 58 nM

Structure (SMILES)	IC50 (IRAK4; IRAK4 0.6 nM)	IC50 (IRAK4; IRAK4 Inhibition Assay)	EC50 [1, 3]	other results
CC(C)(C)Nc1cc(-n2ncc3cc(C#N)c(N)nc32)ncc1C(=O)NC[C@@H](F)C(C)(C)O [Example 293]	–	1 nM	–	IC50 [1, 3]: 32 nM
CC(C)CCC(=O)NCc1cnc2c(ccn2-c2cc(NC(C)C)c(C(=O)NC[C@@H](F)C(C)(C)O)cn2)c1 [Example 512]	3.5 nM	–	–	IC50 [1, 2]: 541 nM
CC(C)(O)[C@H](F)CNC(=O)c1cnc(-n2ccc3cc(C#N)cnc32)cc1N[C@H]1C[C@H](C(C)(C)O)C1 [Example 509]	1.6 nM	–	–	IC50 [1, 2]: 128 nM
CCOP(=O)(CCNC(=O)c1cnc(-n2ncc3cc(C#N)cnc32)cc1NC(C)C)OCC [Example 208]	–	16 nM	–	EC50 ([1]; Homo sapiens, PBMC): 238 nM
CC(C)Nc1cc(-n2ncc3cc(C#N)cnc32)ncc1C(=O)NCc1nc(Cc2ccccc2)no1 [Example 267]	–	4.5 nM	–	IC50 [1, 3]: 516 nM
CC(C)Nc1cc(-n2ncc3cc(Cl)cnc32)ncc1C(=O)NCC(F)C1(O)COC1 (stereo not shown) [Example 258]	–	6.3 nM	–	IC50 [1, 3]: 42 nM
CC(C)Nc1cc(-n2cnc3cnc(NCCO)nc32)ncc1C(=O)NC[C@@H](F)C(C)(C)O [Example 172, (R)—N-(2-Fluoro-3-hydroxy-3-methylbutyl)-6-(2-((2-hydroxyethyl)amino)-9H-purin-9-yl)-4-(isopropylamino)nicotinamide]	–	2.5 nM	–	IC50 [1, 3]: 10000 nM
CC(C)(O)[C@H](F)CNC(=O)c1cnc(-n2ccc3cc(C#N)cnc32)cc1NC1CCC(F)C1 (single isomer, unassigned) [Example 109]	–	1 nM	45 nM	–
CC(O)CCNC(=O)c1cnc(-n2ncc3cc(C#N)cnc32)cc1NC(C)C (stereo not shown) [Example 238]	–	8.1 nM	357 nM	IC50 ([1]; PBMC TLR2 Induced IL-6 Assay, lipoteichoic acid stimulation, IL-6 by ELISA): 1810 nM
CC(C)Nc1cc(-n2ncc3cc(C#N)cnc32)ncc1C(=O)NCC(F)C1CCOCC1 (stereo not shown) [Example 329]	–	4.9 nM	–	IC50 [1, 3]: 76 nM
CCNC(=O)c1cnc(-n2ncc3cc(C#N)cnc32)cc1Nc1cnn(CC(F)F)c1 [Example 393]	–	3.5 nM	–	IC50 [1, 3]: 250 nM
CC(C)(O)[C@H](F)CNC(=O)c1cnc(-n2ncc3cc(C#N)cnc32)cc1NC1CCC(F)(F)C1 (single isomer, unassigned) [Example 614]	7.7 nM	–	–	EC50 [1, 2]: 481 nM; IC50 ([1]; human PBMCs, lipoteichoic acid stimulated, IL-6 by ELISA): 491 nM
CC(=O)N1CC(Nc2cc(-n3ccc4cc(C#N)cnc43)ncc2C(=O)NC[C@@H](F)C(C)(C)O)C1 [Example 468]	5.8 nM	–	–	EC50 [1, 2]: 128 nM; IC50 [1, 2]: 1010 nM
CC(C)(O)c1cnc(Nc2cc(-n3ncc4cc(C#N)cnc43)ncc2C(=O)NC[C@@H](F)C(C)(C)O)s1 [Example 521, (R)-6-(5-Cyano-1H-pyrazolo[3,4-b]pyridin-1-yl)-N-(2-fluoro-3-hydroxy-3-methylbutyl)-4-((5-(2-hydroxypropan-2-yl)thiazol-2-yl)amino)nicotinamide]	3.5 nM	–	–	EC50 [1, 2]: 460 nM
CC(C)(O)[C@H](F)CNC(=O)c1cnc(-n2ccc3cc(C#N)cnc32)cc1NCC1(F)CCC1 [Example 65, (R)-6-(5-cyano-1H-pyrrolo[2,3-b]pyridin-1-yl)-N-(2-fluoro-3-hydroxy-3-methylbutyl)-4-(((1-fluorocyclobutyl)methyl)amino) nicotinamide]	–	1.5 nM	100 nM	–
CC(C)(O)[C@H](F)CNC(=O)c1cnc(-n2ncc3cc(C#N)cnc32)cc1NC1CCN(c2ccccc2)CC1 [Example 535]	4 nM	–	–	EC50 [1, 2]: 185 nM
CCOC(=O)N1CC(Nc2cc(-n3ncc4cc(C#N)cnc43)ncc2C(=O)NC[C@@H](F)C(C)(C)O)C1 [Example 543]	6.8 nM	–	–	IC50 [1, 2]: 404 nM
